In one assay the test system is 3T3 cells. Nature of the assay: MTT cell proliferation assay. The settings on record: Mus musculus, NIH3T3, approximately 64-72 hours. The format is cell-based. In short, it runs like this: (§1)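 Cells seeded at 5,000-10,000 per well attached overnight, then received eight compound concentrations from 1 nM to 30 μM. Viability was measured by MTT (about 4 h) with OD read at 490 nm. Percent inhibition versus negative control, mostly from duplicates, was reported as mean±SE.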
Background: Tetrazolium assays rely on reduction of a dye to a coloured formazan, in cell work by metabolically active cells.

Another assay deals with MM1S cells. The assay can be described thus: MTT cell proliferation assay. The format is cell-based. The conditions noted are these: Homo sapiens, MM1.S, approximately 64-72 hours. In short, it runs like this:
as §1

The next assay has as its system Z138 cells. Nature of the assay: MTT cell proliferation assay. The conditions noted are these: Homo sapiens, Z-138, approximately 64-72 hours. The format is cell-based. In short, it runs like this: as §1
A further assay has as its target T1, CRM1 (Homo sapiens, UniProt O14980).
T1 construct: endogenous in cells; host or cells: U2OS cells stably expressing Rev-GFP
Nature of the assay: Washout assay in U2OS Rev-GFP cells. The conditions noted are these: 24 hour washout versus no washout. The class given is cell-based. On the procedure: After 4 hours, one of the plates was fixed with PFA (no washout, condition A). […] A second plate was fixed with PFA after a 4 hour washout (4 hr washout, condition B) and a third plate was fixed with PFA after a 24 hour washout (24 h washout, condition C). Cells were counterstained with the nuclear dye DAPI.

A further assay relates to MDA-MB-468 xenograft. Nature of the assay: MDA-MB-468 xenograft model. The conditions noted are these: 10 mg/kg PO once daily, CB-17 SCID mice, compared to vehicle. The format is in vivo, mouse. The procedure:
MDA-MB-468 (ATCC #HTB-102) breast adenocarcinoma cells were obtained from ATCC. These cells were grown in high glucose DMEM medium supplemented with 10% fetal bovine serum, 1% penicillin and streptomycin, and 2 mM L-Glutamine. Cells were sub-cultured by dilution at a ratio of 1:4. MDA-MB-468 cells were harvested by trypsinization and counted using a hemocytometer. Cells were resuspended in PBS at a concentration of 4×10^8 cells per mL. Cells were placed on ice and mixed with an equal volume of Matrigel (BD Biosciences CB-40234). Twenty-two (22) CB-17 SCID mice were inoculated sub-cutaneously in the left flank with 4×10^7 MDA-MB-468 cells. Treatment was initiated when the tumors reached a mean volume of ˜100 mm^3. […] Animals' weights and condition were recorded daily, and tumors were measured on Mondays, Wednesdays, and Fridays.

The next assay has as its system Z-138 xenograft. Nature of the assay: Z-138 mantle cell lymphoma xenograft model. The class given is in vivo, mouse. The procedure: Z-138 (ATCC #CRL-3001) mantle cell lymphoma cells were obtained from ATCC. These cells were grown in IMEM medium supplemented with 10% horse serum, 1% penicillin and streptomycin, and 2 mM L-glutamine. Cells were sub-cultured by dilution at a ratio of 1:5 to 1:10. Z-138 cells were harvested by centrifugation and counted using a hemocytometer. Cells were resuspended in PBS at a concentration of 2×10^8 cells per mL. Cells were placed on ice and mixed with an equal volume of Matrigel (BD Biosciences CB-40234). This mixture was kept on ice and injected into the left flank of mice in a volume of 0.2 mL, equivalent to 2×10^7 cells per mouse. Thirty-two (32) CB-17 SCID mice were inoculated subcutaneously in the left flank with 2×10^7 Z-138 cells. Treatment was initiated when the tumors reached a mean volume of 125.2 mm^3. Mice were allocated to four (4) groups of eight (8) mice such that mean tumor volume in each group was within the range of 106.5 to 138.8 mm^3. […] Animal weights and conditions were recorded daily, and tumors were measured on Mondays, Wednesdays and Fridays.

In another assay the test system is Hep 3B xenograft. The assay can be described thus: Hep3B hepatocellular carcinoma xenograft model. The format is in vivo, mouse. The procedure:
Hep 3B cells (ATCC #HTB-8064) hepatocellular carcinoma cells were obtained from ATCC. These cells were grown in DMEM medium supplemented with 10% fetal bovine serum, 1% penicillin and streptomycin. Cells were sub-cultured by dilution at a ratio of 1:4. Hep3B cells were harvested by centrifugation and counted using a hemocytometer. Cells were resuspended in PBS at a concentration of 5×10^7 cells per mL. Cells were placed on ice, and then mixed with an equal volume of Matrigel™ (BD Biosciences CB-40234). This mixture was kept on ice and injected into the left flank of mice in a volume of 0.2 mL, equivalent to 5×10^6 cells per mouse. Thirty-two (32) SCID mice were inoculated subcutaneously in the left flank with 5×10^6 Hep 3B cells. Treatment was initiated when the tumors reached a mean volume of 103.7 mm^3 (standard deviation±30 mm^3, range 17-183 mm^3). Mice were allocated to four (4) groups of eight (8) mice such that mean tumor volume in each group was within the range of 95 to 104 mm^3. […] With the exception of doxorubicin (which was given IP), all compounds were given by oral gavage. […] Animal weights and conditions were recorded daily, and tumors were measured on Mondays, Wednesdays and Fridays.

T1 sequence (O14980 whole entry): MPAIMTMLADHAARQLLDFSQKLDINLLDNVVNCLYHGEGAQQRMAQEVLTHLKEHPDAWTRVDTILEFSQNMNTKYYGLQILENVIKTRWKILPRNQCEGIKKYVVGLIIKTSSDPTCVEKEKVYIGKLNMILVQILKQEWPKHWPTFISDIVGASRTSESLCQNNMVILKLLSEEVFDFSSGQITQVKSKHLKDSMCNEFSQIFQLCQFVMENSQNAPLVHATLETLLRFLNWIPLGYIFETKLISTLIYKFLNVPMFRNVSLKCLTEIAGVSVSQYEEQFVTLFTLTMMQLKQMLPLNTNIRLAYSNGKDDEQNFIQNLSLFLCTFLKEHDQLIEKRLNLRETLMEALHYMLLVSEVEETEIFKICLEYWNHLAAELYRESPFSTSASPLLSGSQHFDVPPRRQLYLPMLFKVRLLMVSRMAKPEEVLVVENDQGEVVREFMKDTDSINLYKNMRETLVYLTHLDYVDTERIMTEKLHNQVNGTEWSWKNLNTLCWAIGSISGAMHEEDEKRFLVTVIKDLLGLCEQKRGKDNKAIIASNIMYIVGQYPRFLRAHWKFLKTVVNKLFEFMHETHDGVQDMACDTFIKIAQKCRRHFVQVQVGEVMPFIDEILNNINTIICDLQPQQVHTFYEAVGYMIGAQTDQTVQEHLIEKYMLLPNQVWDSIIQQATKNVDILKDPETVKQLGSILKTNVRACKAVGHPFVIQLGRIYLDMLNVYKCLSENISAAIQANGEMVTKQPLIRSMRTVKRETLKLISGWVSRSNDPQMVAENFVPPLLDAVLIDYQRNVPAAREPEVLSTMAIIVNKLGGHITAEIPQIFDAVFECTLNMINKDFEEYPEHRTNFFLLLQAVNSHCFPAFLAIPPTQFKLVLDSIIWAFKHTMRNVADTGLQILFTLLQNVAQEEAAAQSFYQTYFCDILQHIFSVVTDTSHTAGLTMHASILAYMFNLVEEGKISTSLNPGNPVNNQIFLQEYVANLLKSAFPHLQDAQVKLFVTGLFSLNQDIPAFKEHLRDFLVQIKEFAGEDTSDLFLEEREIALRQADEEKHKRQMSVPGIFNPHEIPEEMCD

As a reminder, the IC50 is the concentration at which inhibition is half-maximal. On to `NC(=O)/C(=C/n1cnc(-c2cc(C(F)(F)F)cc(C(F)(F)F)c2)n1)c1cncnc1` [Compound 124, (E)-3-(3-(3,5-bis(trifluoromethyl)phenyl)-1H-1,2,4-triazol-1-yl)-2-(pyrimidin-5-yl)acrylamide], for which the half-maximal inhibitory concentration (IC50) with 3T3 cells is 5000 to 30000 nM; in the assay with MM1S cells it was < 100 nM; with Z138 cells, < 100 nM. Further, the “decrease in effectiveness after a 24 hour washout” value at CRM1 came out at 6 fold. In addition, the mean tumor volume result in the assay on MDA-MB-468 xenograft is given as “mean tumor volume was reduced”; in the assay on Z-138 xenograft (5 or 15 mg/kg PO daily, CB-17 SCID mice, compared to vehicle), “mean tumor volume was reduced”; in the assay on Hep 3B xenograft (5 or 15 mg/kg PO daily, SCID mice, compared to vehicle), “mean tumor volume was reduced”. In addition, the “mean tumor volume compared with standard of care” value with Z-138 xenograft (15 mg/kg PO daily, versus cyclophosphamide) is reported as “compared favorably”; in the assay on Hep 3B xenograft (particularly 15 mg/kg PO daily, versus doxorubicin), “compared favorably”.

The values above are taken from patent publication US11945794B2, “Nuclear transport modulators and uses thereof” (Karyopharm Therapeutics Inc., priority 2013, dated 2024).
